Results as given in PubChem BioAssay (NCI).
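In this assay, cells in 96-well plates receive the compound at five concentrations for 48 hours. Endpoints are linearly interpolated between the surrounding concentrations. TGI: total growth inhibition.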 Where a SMILES comes first, the peptide text is derived from it. [ ]: non-standard residue; d: D form. The star is where a group is joined. Tyr(3-Br) = N[C@@H](Cc1ccc(O)c(Br)c1)C(=O)O; Boc = CC(C)(C)OC(=O)*

Experiments:
Assay in all cases: DTP human tumour cell line panel, 48 h
SN12C renal = tested on: SN12C renal
SF-295 CNS = tested on: SF-295 CNS
OVCAR-5 ovarian = tested on: OVCAR-5 ovarian
DU-145 prostate = tested on: DU-145 prostate
SK-MEL-2 melanoma = tested on: SK-MEL-2 melanoma
OVCAR-3 ovarian = tested on: OVCAR-3 ovarian
U251 CNS = tested on: U251 CNS
MDA-N = tested on: MDA-N
SF-539 CNS = tested on: SF-539 CNS
SNB-19 CNS = tested on: SNB-19 CNS
HCC-2998 colon = tested on: HCC-2998 colon
TK-10 renal = tested on: TK-10 renal
EKVX NSCLC = tested on: EKVX NSCLC
SK-OV-3 ovarian = tested on: SK-OV-3 ovarian
HOP-92 NSCLC = tested on: HOP-92 NSCLC
NCI-H522 lung = tested on: NCI-H522 lung
UACC-62 melanoma = tested on: UACC-62 melanoma
UO-31 renal = tested on: UO-31 renal
NCI-H460 lung = tested on: NCI-H460 lung
HT29 colon = tested on: HT29 colon
T-47D breast = tested on: T-47D breast
BT-549 breast = tested on: BT-549 breast
RPMI-8226 leukemia = tested on: RPMI-8226 leukemia
COLO 205 colon = tested on: COLO 205 colon
ACHN renal = tested on: ACHN renal
MALME-3M melanoma = tested on: MALME-3M melanoma
HCT-15 colon = tested on: HCT-15 colon
LOX IMVI melanoma = tested on: LOX IMVI melanoma
RXF 393 renal = tested on: RXF 393 renal
SR leukemia = tested on: SR leukemia
HCT-116 colon = tested on: HCT-116 colon
NCI-H226 lung = tested on: NCI-H226 lung
SK-MEL-5 melanoma = tested on: SK-MEL-5 melanoma
CAKI-1 renal = tested on: CAKI-1 renal
SK-MEL-28 melanoma = tested on: SK-MEL-28 melanoma
MDA-MB-231 breast = tested on: MDA-MB-231 breast
HS 578T breast = tested on: HS 578T breast
OVCAR-8 ovarian = tested on: OVCAR-8 ovarian
OVCAR-4 ovarian = tested on: OVCAR-4 ovarian
SW-620 colon = tested on: SW-620 colon
HOP-62 NSCLC = tested on: HOP-62 NSCLC
NCI/ADR-RES ovarian = tested on: NCI/ADR-RES ovarian
M14 melanoma = tested on: M14 melanoma
NCI-H23 lung = tested on: NCI-H23 lung
UACC-257 melanoma = tested on: UACC-257 melanoma
786-0 renal = tested on: 786-0 renal
MDA-MB-435 = tested on: MDA-MB-435
K-562 leukemia = tested on: K-562 leukemia
KM12 colon = tested on: KM12 colon
A549 NSCLC = tested on: A549 NSCLC
A498 renal = tested on: A498 renal
SF-268 CNS = tested on: SF-268 CNS
MCF7 breast = tested on: MCF7 breast
MOLT-4 leukemia = tested on: MOLT-4 leukemia
CCRF-CEM leukemia = tested on: CCRF-CEM leukemia
PC-3 prostate = tested on: PC-3 prostate
IGROV1 ovarian = tested on: IGROV1 ovarian
SNB-75 CNS = tested on: SNB-75 CNS
HL-60(TB) leukemia = tested on: HL-60(TB) leukemia

Measured: TGI

CCN(CC)C(=S)SS(=O)(=O)c1ccc(Cl)cc1
0.0995 µM: NCI-H522 lung
63.3 µM: K-562 leukemia
82 µM: DU-145 prostate
31 µM: M14 melanoma
65.7 µM: HOP-62 NSCLC
37 µM: SW-620 colon
24.4 µM: KM12 colon
39.2 µM: RXF 393 renal
34.4 µM: SK-MEL-28 melanoma
30.9 µM: SK-MEL-5 melanoma
43.2 µM: RPMI-8226 leukemia
21.1 µM: SR leukemia
35.7 µM: UO-31 renal
34 µM: OVCAR-8 ovarian
50.4 µM: HOP-92 NSCLC
30.4 µM: U251 CNS
27.5 µM: MALME-3M melanoma
32.1 µM: HT29 colon
48.5 µM: MDA-MB-435
48.2 µM: SN12C renal
29.2 µM: LOX IMVI melanoma
43.5 µM: SF-539 CNS | CAKI-1 renal
58.8 µM: UACC-257 melanoma
not listed: MCF7 breast | MOLT-4 leukemia | CCRF-CEM leukemia | PC-3 prostate | IGROV1 ovarian | SNB-75 CNS | HL-60(TB) leukemia
> 100 µM: all other assays above

Cc1ccc(C(=O)Nc2ccc(S(=O)(=O)O)c3cc(S(=O)(=O)O)cc(S(=O)(=O)O)c23)cc1NC(=S)Nc1cc(C(=O)Nc2ccc(S(=O)(=O)O)c3cc(S(=O)(=O)O)cc(S(=O)(=O)O)c23)ccc1C
not listed: SF-295 CNS | SF-539 CNS | EKVX NSCLC | SK-OV-3 ovarian | HOP-92 NSCLC | T-47D breast | COLO 205 colon | RXF 393 renal | HS 578T breast | NCI/ADR-RES ovarian | KM12 colon
> 75 µM: all other assays above

CCOC(=O)c1c(C)cc(=O)n2c1[nH]c1ccccc12
50.9 µM: CAKI-1 renal
not listed: NCI-H522 lung | RPMI-8226 leukemia | SR leukemia | HS 578T breast | OVCAR-4 ovarian | HOP-62 NSCLC | MDA-MB-435 | KM12 colon | SF-268 CNS | SNB-75 CNS
> 100 µM: all other assays above

COC(=O)[C@H](Cc1ccc(O)c(Br)c1)NC(=O)[C@H](Cc1ccc(O)cc1)NC(=O)OC(C)(C)C (Boc-Tyr-[Tyr(3-Br)]-OMe)
94.9 µM: SF-539 CNS
37.7 µM: NCI-H460 lung
93 µM: HOP-92 NSCLC
51.2 µM: CCRF-CEM leukemia
91 µM: RPMI-8226 leukemia
38.3 µM: OVCAR-3 ovarian
71.5 µM: NCI-H23 lung
57.2 µM: MALME-3M melanoma
37.5 µM: OVCAR-8 ovarian
53.5 µM: MDA-MB-435
42.6 µM: LOX IMVI melanoma
44.4 µM: T-47D breast
98.1 µM: BT-549 breast
44 µM: HCT-15 colon
not listed: U251 CNS | NCI-H522 lung | UACC-62 melanoma | RXF 393 renal | SK-MEL-5 melanoma | MDA-MB-231 breast
> 100 µM: all other assays above

Cc1c2c(n(CCc3ccccc3)c1C)N(C)N=C(C#N)S2(=O)=O
not listed: HOP-92 NSCLC | COLO 205 colon | MALME-3M melanoma | LOX IMVI melanoma | HS 578T breast | K-562 leukemia | A498 renal | CCRF-CEM leukemia | HL-60(TB) leukemia
> 100 µM: all other assays above

C/C=C\C(CC(=O)NCCC1CN(S(=O)(=O)C(F)(F)F)c2ccccc21)CC(=O)OC (stereo unspecified)
94 µM: SK-MEL-2 melanoma
51.3 µM: HT29 colon
41.4 µM: SK-MEL-5 melanoma
72.3 µM: HS 578T breast
67.1 µM: BT-549 breast
63 µM: COLO 205 colon
45.9 µM: MALME-3M melanoma
52 µM: NCI-H522 lung
not listed: SN12C renal | SF-539 CNS | TK-10 renal | T-47D breast | LOX IMVI melanoma | NCI-H226 lung | MDA-MB-435 | SF-268 CNS | SNB-75 CNS | HL-60(TB) leukemia
> 100 µM: all other assays above

COC(=O)NC1(NC(=O)OC)NC(=O)c2cc(OC)c(OC)c(OC)c2N1
72.3 µM: PC-3 prostate
41.5 µM: NCI-H522 lung
56.6 µM: NCI/ADR-RES ovarian
8.85 µM: SK-MEL-2 melanoma
67.7 µM: HS 578T breast
38.8 µM: SNB-75 CNS
16.9 µM: MDA-N
87.7 µM: HL-60(TB) leukemia
not listed: HOP-92 NSCLC | RPMI-8226 leukemia | LOX IMVI melanoma | RXF 393 renal | MDA-MB-435
> 100 µM: all other assays above

COc1cc(C=C2C(C)=NN(c3cccc(Cl)c3)C23C(Cl)C(=O)N3c2nc3ccccc3s2)ccc1O (stereo unspecified)
48.4 µM: IGROV1 ovarian
26.1 µM: HOP-92 NSCLC
35 µM: U251 CNS
9.16 µM: HCC-2998 colon
50.9 µM: OVCAR-5 ovarian
63.6 µM: NCI-H226 lung
26.7 µM: HT29 colon | MDA-MB-231 breast
41.9 µM: M14 melanoma
12.5 µM: NCI-H522 lung
36.9 µM: SK-MEL-5 melanoma
72.2 µM: OVCAR-3 ovarian
38.8 µM: CCRF-CEM leukemia
21.1 µM: MOLT-4 leukemia
41.5 µM: OVCAR-8 ovarian
57.4 µM: NCI-H23 lung
39.1 µM: ACHN renal
25.2 µM: K-562 leukemia
36.3 µM: SK-MEL-2 melanoma
43.7 µM: 786-0 renal
71.5 µM: CAKI-1 renal
55 µM: UO-31 renal
36 µM: HL-60(TB) leukemia
59.5 µM: SK-OV-3 ovarian
> 100 µM: SF-295 CNS | MCF7 breast | SF-539 CNS | TK-10 renal | EKVX NSCLC | T-47D breast | SK-MEL-28 melanoma | OVCAR-4 ovarian | NCI/ADR-RES ovarian
66.1 µM: NCI-H460 lung
16 µM: SF-268 CNS
48.7 µM: DU-145 prostate
74.7 µM: MDA-N
35.1 µM: MDA-MB-435
35.2 µM: A498 renal
30.1 µM: KM12 colon
43 µM: HS 578T breast
69.1 µM: HOP-62 NSCLC
17.2 µM: SR leukemia
26 µM: SW-620 colon
73.1 µM: UACC-257 melanoma
45 µM: HCT-116 colon
52.2 µM: HCT-15 colon
30.4 µM: PC-3 prostate
40.2 µM: LOX IMVI melanoma
30.3 µM: RXF 393 renal
30.5 µM: RPMI-8226 leukemia
